# Measured values published in US12594276B2, “Inhibitors of human immunodeficiency virus replication” (ViiV Healthcare UK (No.5) Limited, priority 2024, dated 2026).
# Assays:
# [1] = tested on: recombinant NL4-3 virus (nef section replaced with Renilla luciferase gene) in MT-2 cells; test: HIV cell culture assay (antiviral activity, luciferase readout); assay type: cell-based; details: Renilla, NL43, MT-2 cells infected for 4-5 days with recombinant NL4-3 Renilla luciferase virus
# Summary of the method: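 EC50 was derived by median-effect fitting of Renilla luciferase signal from MT-2 cells. These cells were infected for 4–5 days with NL4-3 reporter virus (nef partly replaced by luciferase; made in 293T cells) in the presence of serially diluted compound. Activity was quantified with a live-cell luciferase substrate.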
# [2] = Compound cytotoxicity, XTT-based colorimetric assay; assay type: cell-based; details: human; uninfected MT2 cells, day 4, XTT; read-out: CC50
# Summary of the method: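 Uninfected MT2 cells, antiviral-assay protocol without virus; XTT colorimetric readout day 4; CC50 reported.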
Compound,EC50 [1],CC50 at 4 days [2]
"Cc1cc(C2(F)CCC(F)(F)CC2)nc2nc([C@H](Cc3cc(F)cc(F)c3)NC(=O)Cn3nc(C(F)F)c4c3C(F)(F)[C@@H]3C[C@H]43)n(-c3ccc(Cl)c4c(NS(C)(=O)=O)nn([C@@H](C)CN5C[C@@H](C)O[C@@H](C)C5)c34)c(=O)c12 (atropisomer, axis not shown; (P)) [Example 747, N-[(1S)-1-[(3P)-3-{4-chloro-1-[(2S)-1-[(2R,6S)-2,6-dimethylmorpholin-4-yl]propan-2-yl]-3-methanesulfonamido-1H-indazol-7-yl}-5-methyl-4-oxo-7-(1,4,4-trifluorocyclohexyl)-3H,4H-pyrido[2,3-d]pyrimidin-2-yl]-2-(3,5-difluorophenyl)ethyl]-2-[(2S,4R)-9-(difluoromethyl)-5,5-difluoro-7,8-diazatricyclo[4.3.0.0^2,^4]nona-1(6),8-dien-7-yl]acetamide]",0.017 nM,> 20 nM
"Cc1cc(C2(F)CCC(F)(F)CC2)nc2nc([C@H](Cc3cc(F)cc(F)c3)NC(=O)Cn3nc(C(F)F)c4c3C(F)(F)[C@@H]3C[C@H]43)n(-c3ccc(Cl)c4c(NS(C)(=O)=O)nn([C@H](C)C(=O)N5CC(C)(C)OC(C)(C)C5)c34)c(=O)c12 (atropisomer, axis not shown; (P)) [Example 749, N-[(1S)-1-[(3P)-3-{4-chloro-3-methanesulfonamido-1-[(2R)-1-oxo-1-(2,2,6,6-tetramethylmorpholin-4-yl)propan-2-yl]-1H-indazol-7-yl}-5-methyl-4-oxo-7-(1,4,4-trifluorocyclohexyl)-3H,4H-pyrido[2,3-d]pyrimidin-2-yl]-2-(3,5-difluorophenyl)ethyl]-2-[(2S,4R)-9-(difluoromethyl)-5,5-difluoro-7,8-diazatricyclo[4.3.0.0^2,^4]nona-1(6),8-dien-7-yl]acetamide]",0.018 nM,> 20 nM
"Cc1cc(C2(F)CCC(F)(F)CC2)nc2nc([C@H](Cc3cc(F)cc(F)c3)NC(=O)Cn3nc(C(F)F)c4c3C(F)(F)[C@@H]3C[C@H]43)n(-c3ccc(Cl)c4c(NS(C)(=O)=O)nn([C@@H](C)CN5C[C@H](F)C[C@H](F)C5)c34)c(=O)c12 (atropisomer, axis not shown; (P)) [Example 753, N-[(1S)-1-[(3P)-3-{4-chloro-1-[(2S)-1-[(3R,5S)-3,5-difluoropiperidin-1-yl]propan-2-yl]-3-methanesulfonamido-1H-indazol-7-yl}-5-methyl-4-oxo-7-(1,4,4-trifluorocyclohexyl)-3H,4H-pyrido[2,3-d]pyrimidin-2-yl]-2-(3,5-difluorophenyl)ethyl]-2-[(2S,4R)-9-(difluoromethyl)-5,5-difluoro-7,8-diazatricyclo[4.3.0.0^2,^4]nona-1(6),8-dien-7-yl]acetamide]",0.026 nM,> 20 nM
"CCc1cc(C2CCC(F)(F)CC2)nc2nc([C@H](Cc3cc(F)cc(F)c3)NC(=O)Cn3nc(C(F)F)c4c3C[C@H]3C[C@@H]43)n(-c3ccc(Cl)c4c(NS(C)(=O)=O)nn(CCOC)c34)c(=O)c12 (relative stereo) [Example 636, N-[(1S)-1-[(3P)-3-[4-chloro-3-methanesulfonamido-1-(2-methoxyethyl)-1H-indazol-7-yl]-7-(4,4-difluorocyclohexyl)-5-ethyl-4-oxo-3H,4H-pyrido[2,3-d]pyrimidin-2-yl]-2-(3,5-difluorophenyl)ethyl]-2-[(2R*,4R*)-9-(difluoromethyl)-7,8-diazatricyclo[4.3.0.0^2,^4]nona-1(6),8-dien-7-yl]acetamide]",0.015 nM,> 50 nM
"CCc1cc(C2CCC(F)(F)CC2)nc2nc([C@H](Cc3cc(F)cc(F)c3)NC(=O)Cn3nc(C(F)(F)F)c4c3C[C@H]3C[C@@H]43)n(-c3ccc(Cl)c4c(NS(C)(=O)=O)nn(CCCOC)c34)c(=O)c12 (relative stereo) [Example 641, N-[(1S)-1-[(3P)-3-[4-chloro-3-methanesulfonamido-1-(3-methoxypropyl)-1H-indazol-7-yl]-7-(4,4-difluorocyclohexyl)-5-ethyl-4-oxo-3H,4H-pyrido[2,3-d]pyrimidin-2-yl]-2-(3,5-difluorophenyl)ethyl]-2-[(2R*,4R*)-9-(trifluoromethyl)-7,8-diazatricyclo[4.3.0.0^2,^4]nona-1(6),8-dien-7-yl]acetamide]",0.029 nM,> 50 nM
"CCc1cc(C2CCC(F)(F)CC2)nc2nc([C@H](Cc3cc(F)cc(F)c3)NC(=O)Cn3nc(C(F)F)c4c3C[C@H]3C[C@@H]43)n(-c3ccc(Cl)c4c(NS(C)(=O)=O)nn(CCCOC)c34)c(=O)c12 (relative stereo) [Example 643, N-[(1S)-1-[(3P)-3-[4-chloro-3-methanesulfonamido-1-(3-methoxypropyl)-1H-indazol-7-yl]-7-(4,4-difluorocyclohexyl)-5-ethyl-4-oxo-3H,4H-pyrido[2,3-d]pyrimidin-2-yl]-2-(3,5-difluorophenyl)ethyl]-2-[(2R*,4R*)-9-(difluoromethyl)-7,8-diazatricyclo[4.3.0.0^2,^4]nona-1(6),8-dien-7-yl]acetamide]",0.017 nM,> 50 nM
"Cc1cc(C2CCC(F)(F)CC2)nc2nc([C@H](Cc3cc(F)cc(F)c3)NC(=O)Cn3nc(C4CC4)c4c3C[C@@H]3C[C@H]43)n(-c3ccc(Cl)c4c(NS(C)(=O)=O)nn([C@H](C)C(=O)N5C[C@@H](C)O[C@@H](C)C5)c34)c(=O)c12 (relative stereo) [Example 679, N-[(1S)-1-[(3P)-3-{4-chloro-1-[(2R)-1-[(2R,6S)-2,6-dimethylmorpholin-4-yl]-1-oxopropan-2-yl]-3-methanesulfonamido-1H-indazol-7-yl}-7-(4,4-difluorocyclohexyl)-5-methyl-4-oxo-3H,4H-pyrido[2,3-d]pyrimidin-2-yl]-2-(3,5-difluorophenyl)ethyl]-2-[(2R*,4R*)-9-cyclopropyl-7,8-diazatricyclo[4.3.0.0^2,^4]nona-1(6),8-dien-7-yl]acetamide]",0.012 nM,> 20 nM
"Cc1cc(C2CCC(F)(F)CC2)nc2nc([C@H](Cc3cc(F)cc(F)c3)NC(=O)Cn3nc(C4CC4)c4c3C[C@@H]3C[C@H]43)n(-c3ccc(Cl)c4c(NS(C)(=O)=O)nn(C[C@@H](C)N5C[C@H](F)C[C@H](F)C5)c34)c(=O)c12 (relative stereo) [Example 685, N-[(1S)-1-[(3P)-3-{4-chloro-1-[(2R)-2-[(3R,5S)-3,5-difluoropiperidin-1-yl]propyl]-3-methanesulfonamido-1H-indazol-7-yl}-7-(4,4-difluorocyclohexyl)-5-methyl-4-oxo-3H,4H-pyrido[2,3-d]pyrimidin-2-yl]-2-(3,5-difluorophenyl)ethyl]-2-[(2R*,4R*)-9-cyclopropyl-7,8-diazatricyclo[4.3.0.0^2,^4]nona-1(6),8-dien-7-yl]acetamide]",0.01 nM,> 20 nM
"Cc1cc(C2CCC(F)(F)CC2)nc2nc([C@H](Cc3cc(F)cc(F)c3)NC(=O)Cn3nc(C4CC4)c4c3C[C@@H]3C[C@H]43)n(-c3ccc(Cl)c4c(NS(C)(=O)=O)nn(CC5(N6C[C@@H](C)O[C@@H](C)C6)CC5)c34)c(=O)c12 (relative stereo) [Example 691, N-[(1S)-1-[(3P)-3-[4-chloro-1-({1-[(2R,6S)-2,6-dimethylmorpholin-4-yl]cyclopropyl}methyl)-3-methanesulfonamido-1H-indazol-7-yl]-7-(4,4-difluorocyclohexyl)-5-methyl-4-oxo-3H,4H-pyrido[2,3-d]pyrimidin-2-yl]-2-(3,5-difluorophenyl)ethyl]-2-[(2R*,4R*)-9-cyclopropyl-7,8-diazatricyclo[4.3.0.0^2,^4]nona-1(6),8-dien-7-yl]acetamide]",0.007 nM,> 20 nM
"C[C@H](O)c1cc(C2CCC(F)(F)CC2)nc2nc([C@H](Cc3cc(F)cc(F)c3)NC(=O)Cn3nc(C(F)F)c4c3C(F)(F)[C@@H]3C[C@H]43)n(-c3ccc(Cl)c4c(NS(C)(=O)=O)nn(CCN5CCC(F)(F)CC5)c34)c(=O)c12 (relative stereo) [Example 698, N-[(1S)-1-[(3P)-3-{4-chloro-1-[2-(4,4-difluoropiperidin-1-yl)ethyl]-3-methanesulfonamido-1H-indazol-7-yl}-7-(4,4-difluorocyclohexyl)-5-[(1R**)-1-hydroxyethyl]-4-oxo-3H,4H-pyrido[2,3-d]pyrimidin-2-yl]-2-(3,5-difluorophenyl)ethyl]-2-[(2R*,4S*)-9-(difluoromethyl)-5,5-difluoro-7,8-diazatricyclo[4.3.0.0^2,4]nona-1(6),8-dien-7-yl]acetamide]",0.027 nM,> 20 nM
"Cc1cc(C2(F)CCC(F)(F)CC2)nc2nc([C@H](Cc3cc(F)cc(F)c3)NC(=O)Cn3nc(C4CC4)c4c3C[C@@H]3C[C@H]43)n(-c3ccc(Cl)c4c(NS(C)(=O)=O)nn(C[C@@H](C)N5C[C@H](F)C[C@H](F)C5)c34)c(=O)c12 (relative stereo) [Example 702, N-[(1S)-1-[(3P)-3-{4-chloro-1-[(2R)-2-[(3R,5S)-3,5-difluoropiperidin-1-yl]propyl]-3-methanesulfonamido-1H-indazol-7-yl}-5-methyl-4-oxo-7-(1,4,4-trifluorocyclohexyl)-3H,4H-pyrido[2,3-d]pyrimidin-2-yl]-2-(3,5-difluorophenyl)ethyl]-2-[(2R*,4R*)-9-cyclopropyl-7,8-diazatricyclo[4.3.0.0^2,^4]nona-1(6),8-dien-7-yl]acetamide]",0.016 nM,> 20 nM
